{"source": "patent US12427210B2", "about": "“Compounds comprising a fibroblast activation protein ligand and use thereof” (priority 2019, dated 2025)", "key": {"DPP7": {"molecular_target": "DPP7 (Homo sapiens, UniProt Q9UHL4)", "conditions": "200 μM"}, "DPP8": {"molecular_target": "DPP8 (Homo sapiens, UniProt Q6V1X1)", "sequence (Q6V1X1 whole entry, species assumed)": "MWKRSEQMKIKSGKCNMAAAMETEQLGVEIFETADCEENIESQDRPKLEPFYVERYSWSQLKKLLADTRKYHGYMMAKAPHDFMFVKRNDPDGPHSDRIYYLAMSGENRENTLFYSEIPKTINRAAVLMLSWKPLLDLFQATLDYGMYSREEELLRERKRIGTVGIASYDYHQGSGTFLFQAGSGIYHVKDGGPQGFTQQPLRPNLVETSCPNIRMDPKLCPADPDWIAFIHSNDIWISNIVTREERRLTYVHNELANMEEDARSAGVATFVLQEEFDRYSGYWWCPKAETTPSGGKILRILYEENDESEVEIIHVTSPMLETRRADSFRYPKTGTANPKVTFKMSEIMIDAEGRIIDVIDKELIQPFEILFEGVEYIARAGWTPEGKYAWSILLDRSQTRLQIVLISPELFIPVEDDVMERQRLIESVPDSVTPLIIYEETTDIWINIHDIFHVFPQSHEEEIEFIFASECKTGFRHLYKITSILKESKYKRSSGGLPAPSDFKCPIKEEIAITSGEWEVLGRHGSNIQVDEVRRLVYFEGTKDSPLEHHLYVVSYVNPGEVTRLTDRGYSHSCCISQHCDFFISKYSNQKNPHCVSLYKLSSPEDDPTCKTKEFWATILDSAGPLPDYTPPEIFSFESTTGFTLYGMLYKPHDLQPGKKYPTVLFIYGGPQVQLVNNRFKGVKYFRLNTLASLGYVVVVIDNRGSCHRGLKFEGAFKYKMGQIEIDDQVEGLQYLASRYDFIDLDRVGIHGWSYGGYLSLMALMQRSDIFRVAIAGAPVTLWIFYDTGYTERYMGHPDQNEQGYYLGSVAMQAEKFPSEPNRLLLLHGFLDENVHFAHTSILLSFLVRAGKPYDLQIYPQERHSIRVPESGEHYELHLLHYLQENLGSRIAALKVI", "conditions": "200 μM"}, "[1]": {"molecular_target": "serine protease NS3 (a.a. 3-181) from Hepatitis C virus genotype 2a (Hepatitis C virus genotype 2a, UniProt Q99IB8)", "sequence (Q99IB8 1033-1211 limits assumed, other chains not shown)": "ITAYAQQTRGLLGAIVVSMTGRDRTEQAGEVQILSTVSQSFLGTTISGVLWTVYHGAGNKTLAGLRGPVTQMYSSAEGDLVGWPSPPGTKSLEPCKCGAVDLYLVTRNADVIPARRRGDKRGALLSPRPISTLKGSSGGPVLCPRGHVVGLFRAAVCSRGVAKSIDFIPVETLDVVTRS", "conditions": "100 nM"}, "[2]": {"system": "serine protease NS3 (a.a. 3-181) from Hepatitis C virus genotype 1b", "conditions": "Reference, 100 nM"}, "[3]": {"system": "serine protease NS3 (a.a. 3-181) from Hepatitis C virus genotype 1a (mutant D168V)", "conditions": "Reference, 100 nM"}, "FAP": {"molecular_target": "FAP (Homo sapiens, UniProt Q12884)", "sequence (Q12884 whole entry)": "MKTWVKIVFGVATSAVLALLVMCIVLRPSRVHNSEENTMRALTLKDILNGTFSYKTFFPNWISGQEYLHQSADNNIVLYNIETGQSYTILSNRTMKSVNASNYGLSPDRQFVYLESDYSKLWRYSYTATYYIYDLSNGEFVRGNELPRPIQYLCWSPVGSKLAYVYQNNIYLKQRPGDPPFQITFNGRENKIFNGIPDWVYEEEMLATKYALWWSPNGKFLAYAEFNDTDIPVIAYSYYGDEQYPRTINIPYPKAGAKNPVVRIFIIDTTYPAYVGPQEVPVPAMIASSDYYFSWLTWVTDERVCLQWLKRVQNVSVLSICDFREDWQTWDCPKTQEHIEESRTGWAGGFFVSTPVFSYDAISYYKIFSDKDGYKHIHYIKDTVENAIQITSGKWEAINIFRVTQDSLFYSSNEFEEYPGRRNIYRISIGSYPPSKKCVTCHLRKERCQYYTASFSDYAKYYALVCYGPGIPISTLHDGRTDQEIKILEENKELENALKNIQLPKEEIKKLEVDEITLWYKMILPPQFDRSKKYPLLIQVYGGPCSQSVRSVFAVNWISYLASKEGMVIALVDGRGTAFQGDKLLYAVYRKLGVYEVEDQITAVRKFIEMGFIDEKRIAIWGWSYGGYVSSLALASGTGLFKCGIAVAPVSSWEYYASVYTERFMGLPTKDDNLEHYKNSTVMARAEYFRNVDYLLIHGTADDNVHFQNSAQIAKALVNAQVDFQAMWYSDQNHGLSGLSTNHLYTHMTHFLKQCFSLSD", "conditions": "100 nM"}, "Ataxin3": {"molecular_target": "Ataxin3 (Homo sapiens, UniProt P54252)", "sequence (P54252 whole entry, species assumed)": "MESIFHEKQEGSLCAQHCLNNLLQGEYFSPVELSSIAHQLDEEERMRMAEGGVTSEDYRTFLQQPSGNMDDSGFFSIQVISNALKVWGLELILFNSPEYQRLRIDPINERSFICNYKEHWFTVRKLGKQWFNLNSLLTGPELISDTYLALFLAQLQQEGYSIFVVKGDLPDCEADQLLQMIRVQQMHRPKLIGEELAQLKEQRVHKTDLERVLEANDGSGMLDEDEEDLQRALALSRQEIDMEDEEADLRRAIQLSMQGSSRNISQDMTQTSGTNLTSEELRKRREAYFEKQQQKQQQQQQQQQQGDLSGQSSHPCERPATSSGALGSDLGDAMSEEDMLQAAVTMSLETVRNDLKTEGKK", "conditions": "10 μM"}, "Deubiquitinase OTUD6B": {"molecular_target": "T1, Deubiquitinase OTUD6B (Homo sapiens, UniProt Q8N6M0)", "T1 sequence (Q8N6M0 1-293)": "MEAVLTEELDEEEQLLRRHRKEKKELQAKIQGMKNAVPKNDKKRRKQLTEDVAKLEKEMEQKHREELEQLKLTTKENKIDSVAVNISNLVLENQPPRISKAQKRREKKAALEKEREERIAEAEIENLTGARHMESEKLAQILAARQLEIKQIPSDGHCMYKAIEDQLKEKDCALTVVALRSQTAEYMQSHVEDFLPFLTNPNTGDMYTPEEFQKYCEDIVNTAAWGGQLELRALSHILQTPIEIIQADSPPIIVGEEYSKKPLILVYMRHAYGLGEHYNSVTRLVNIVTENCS", "conditions": "1 μM"}, "[4]": {"molecular_target": "T2, Ubiquitin carboxyl-terminal hydrolase 2 (Homo sapiens, UniProt O75604)", "T2 sequence (O75604 1-605)": "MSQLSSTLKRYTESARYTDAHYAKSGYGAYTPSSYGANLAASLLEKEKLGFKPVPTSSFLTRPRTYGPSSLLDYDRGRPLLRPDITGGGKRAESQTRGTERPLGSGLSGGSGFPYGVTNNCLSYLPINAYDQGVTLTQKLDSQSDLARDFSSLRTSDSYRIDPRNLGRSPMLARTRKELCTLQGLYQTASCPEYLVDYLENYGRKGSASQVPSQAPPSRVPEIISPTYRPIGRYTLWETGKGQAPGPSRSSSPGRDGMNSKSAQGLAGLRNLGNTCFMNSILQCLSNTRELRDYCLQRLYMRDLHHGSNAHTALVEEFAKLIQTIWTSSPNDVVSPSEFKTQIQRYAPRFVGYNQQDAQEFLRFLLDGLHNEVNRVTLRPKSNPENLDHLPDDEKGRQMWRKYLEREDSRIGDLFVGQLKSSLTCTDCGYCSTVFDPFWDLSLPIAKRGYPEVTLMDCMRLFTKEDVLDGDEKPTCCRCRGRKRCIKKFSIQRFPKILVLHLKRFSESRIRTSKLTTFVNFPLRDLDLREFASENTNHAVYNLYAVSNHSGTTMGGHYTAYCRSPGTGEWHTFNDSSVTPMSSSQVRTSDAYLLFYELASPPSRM", "conditions": "1 μM"}, "[5]": {"molecular_target": "Ubiquitin carboxyl-terminal hydrolase 14 (Homo sapiens, UniProt P54578)", "sequence (P54578 whole entry)": "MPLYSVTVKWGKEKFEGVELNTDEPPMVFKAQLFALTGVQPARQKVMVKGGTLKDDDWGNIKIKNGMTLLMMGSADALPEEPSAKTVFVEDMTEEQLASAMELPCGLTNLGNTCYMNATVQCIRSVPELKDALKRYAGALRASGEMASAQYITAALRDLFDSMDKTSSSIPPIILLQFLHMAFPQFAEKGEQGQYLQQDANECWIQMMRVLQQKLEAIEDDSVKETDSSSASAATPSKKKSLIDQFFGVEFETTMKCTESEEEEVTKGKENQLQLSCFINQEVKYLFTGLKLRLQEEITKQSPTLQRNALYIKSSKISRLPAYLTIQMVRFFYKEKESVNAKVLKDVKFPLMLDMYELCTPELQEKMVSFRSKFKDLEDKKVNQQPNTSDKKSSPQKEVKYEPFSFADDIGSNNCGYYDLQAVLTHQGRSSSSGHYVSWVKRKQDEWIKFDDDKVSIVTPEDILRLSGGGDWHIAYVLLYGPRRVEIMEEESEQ", "conditions": "100 nM"}, "[6]": {"molecular_target": "Ubiquitin carboxyl-terminal hydrolase 7 (Homo sapiens, UniProt Q93009)", "sequence (Q93009 whole entry)": "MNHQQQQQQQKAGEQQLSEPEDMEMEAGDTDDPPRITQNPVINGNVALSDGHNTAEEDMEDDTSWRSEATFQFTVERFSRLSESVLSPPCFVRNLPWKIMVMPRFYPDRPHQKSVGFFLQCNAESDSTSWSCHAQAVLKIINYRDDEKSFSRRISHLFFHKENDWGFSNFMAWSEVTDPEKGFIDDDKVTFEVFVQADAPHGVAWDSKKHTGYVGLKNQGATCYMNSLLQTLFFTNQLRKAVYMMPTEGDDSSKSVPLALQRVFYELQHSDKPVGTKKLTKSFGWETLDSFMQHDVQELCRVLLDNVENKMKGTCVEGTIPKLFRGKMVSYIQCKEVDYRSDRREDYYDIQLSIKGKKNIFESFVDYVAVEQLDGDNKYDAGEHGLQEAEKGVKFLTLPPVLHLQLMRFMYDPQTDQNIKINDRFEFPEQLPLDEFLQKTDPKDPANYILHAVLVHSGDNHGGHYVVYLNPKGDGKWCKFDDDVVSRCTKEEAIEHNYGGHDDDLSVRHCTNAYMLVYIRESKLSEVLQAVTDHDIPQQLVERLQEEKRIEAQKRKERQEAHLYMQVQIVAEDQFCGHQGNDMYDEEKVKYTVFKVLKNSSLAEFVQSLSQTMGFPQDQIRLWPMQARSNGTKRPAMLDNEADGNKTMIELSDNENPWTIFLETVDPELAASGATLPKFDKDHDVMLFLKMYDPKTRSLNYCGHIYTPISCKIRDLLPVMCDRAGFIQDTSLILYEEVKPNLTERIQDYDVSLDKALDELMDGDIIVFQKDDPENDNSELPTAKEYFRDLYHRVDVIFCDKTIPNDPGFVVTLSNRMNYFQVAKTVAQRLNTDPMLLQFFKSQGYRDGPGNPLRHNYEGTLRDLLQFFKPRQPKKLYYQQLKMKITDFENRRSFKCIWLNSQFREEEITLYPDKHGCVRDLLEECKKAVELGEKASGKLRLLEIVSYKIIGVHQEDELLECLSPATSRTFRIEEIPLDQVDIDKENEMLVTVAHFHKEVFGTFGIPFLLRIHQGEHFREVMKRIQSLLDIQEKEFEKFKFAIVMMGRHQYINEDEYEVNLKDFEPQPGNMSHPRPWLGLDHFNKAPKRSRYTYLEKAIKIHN", "conditions": "1 μM"}, "[7]": {"molecular_target": "T3, Ubiquitin carboxyl-terminal hydrolase 5 (Homo sapiens, UniProt P45974)", "T3 sequence (P45974 1-858)": "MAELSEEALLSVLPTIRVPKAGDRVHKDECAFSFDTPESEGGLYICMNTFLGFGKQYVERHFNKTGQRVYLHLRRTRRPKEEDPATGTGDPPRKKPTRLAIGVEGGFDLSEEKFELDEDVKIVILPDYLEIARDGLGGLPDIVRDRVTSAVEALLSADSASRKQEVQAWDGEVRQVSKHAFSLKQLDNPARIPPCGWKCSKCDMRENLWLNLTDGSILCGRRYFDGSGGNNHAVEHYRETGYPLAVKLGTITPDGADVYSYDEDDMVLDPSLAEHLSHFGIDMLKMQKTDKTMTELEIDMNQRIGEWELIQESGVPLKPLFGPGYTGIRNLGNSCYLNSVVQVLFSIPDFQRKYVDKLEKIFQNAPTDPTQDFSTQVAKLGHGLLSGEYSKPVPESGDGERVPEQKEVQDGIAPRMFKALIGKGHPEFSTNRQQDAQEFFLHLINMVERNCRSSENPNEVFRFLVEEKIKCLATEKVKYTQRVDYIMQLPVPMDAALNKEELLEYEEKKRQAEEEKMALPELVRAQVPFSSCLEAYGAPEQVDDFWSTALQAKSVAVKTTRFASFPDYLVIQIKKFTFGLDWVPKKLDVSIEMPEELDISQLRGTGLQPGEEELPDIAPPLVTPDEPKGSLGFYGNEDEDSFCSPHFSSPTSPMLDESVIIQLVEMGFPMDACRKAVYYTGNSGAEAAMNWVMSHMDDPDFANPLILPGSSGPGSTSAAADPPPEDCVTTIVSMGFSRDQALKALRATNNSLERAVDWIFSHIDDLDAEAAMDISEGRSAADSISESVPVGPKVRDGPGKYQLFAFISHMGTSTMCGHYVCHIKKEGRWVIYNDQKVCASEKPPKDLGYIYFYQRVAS", "conditions": "1 μM"}, "[8]": {"molecular_target": "T4, Ubiquitin carboxy-terminal hydrolase L1 (Homo sapiens, UniProt P09936)", "T4 sequence (P09936 1-223)": "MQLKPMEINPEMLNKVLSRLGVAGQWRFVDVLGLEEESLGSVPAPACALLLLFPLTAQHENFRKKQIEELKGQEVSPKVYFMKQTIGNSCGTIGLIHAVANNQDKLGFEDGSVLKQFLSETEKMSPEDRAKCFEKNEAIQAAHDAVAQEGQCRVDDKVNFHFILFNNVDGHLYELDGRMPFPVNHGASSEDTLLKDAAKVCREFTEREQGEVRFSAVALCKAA", "conditions": "100 nM"}, "[9]": {"molecular_target": "T5, Ubiquitin carboxyl-terminal hydrolase 8 (Homo sapiens, UniProt P40818)", "T5 sequence (P40818 1-1118)": "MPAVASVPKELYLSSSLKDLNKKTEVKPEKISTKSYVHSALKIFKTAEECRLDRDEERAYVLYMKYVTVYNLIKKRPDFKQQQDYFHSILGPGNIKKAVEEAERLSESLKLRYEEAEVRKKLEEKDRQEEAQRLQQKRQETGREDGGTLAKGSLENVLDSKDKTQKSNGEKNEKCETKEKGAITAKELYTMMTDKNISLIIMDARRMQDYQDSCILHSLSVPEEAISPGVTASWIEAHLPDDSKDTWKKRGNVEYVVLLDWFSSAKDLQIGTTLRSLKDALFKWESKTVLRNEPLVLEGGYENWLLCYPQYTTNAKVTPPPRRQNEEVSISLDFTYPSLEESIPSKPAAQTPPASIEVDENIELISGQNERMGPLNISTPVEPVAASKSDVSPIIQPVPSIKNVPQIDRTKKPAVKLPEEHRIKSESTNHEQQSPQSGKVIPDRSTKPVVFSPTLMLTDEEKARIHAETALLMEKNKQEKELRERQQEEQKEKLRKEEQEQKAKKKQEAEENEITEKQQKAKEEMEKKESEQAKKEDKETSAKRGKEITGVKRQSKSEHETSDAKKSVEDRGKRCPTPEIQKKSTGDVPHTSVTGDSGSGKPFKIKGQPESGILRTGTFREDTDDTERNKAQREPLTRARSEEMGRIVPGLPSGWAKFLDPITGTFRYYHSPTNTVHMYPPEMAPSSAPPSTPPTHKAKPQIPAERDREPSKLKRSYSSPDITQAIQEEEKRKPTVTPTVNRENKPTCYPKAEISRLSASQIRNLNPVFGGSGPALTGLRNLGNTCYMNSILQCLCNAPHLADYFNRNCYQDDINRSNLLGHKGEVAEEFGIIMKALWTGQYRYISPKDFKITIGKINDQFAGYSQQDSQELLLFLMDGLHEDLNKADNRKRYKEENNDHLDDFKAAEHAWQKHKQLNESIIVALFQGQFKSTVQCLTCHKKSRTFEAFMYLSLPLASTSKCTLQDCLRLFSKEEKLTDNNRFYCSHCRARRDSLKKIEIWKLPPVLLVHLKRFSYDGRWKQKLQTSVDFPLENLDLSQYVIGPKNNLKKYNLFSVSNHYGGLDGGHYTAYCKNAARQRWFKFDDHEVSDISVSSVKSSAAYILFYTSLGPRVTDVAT", "conditions": "1 μM"}, "[10]": {"molecular_target": "Ubiquitin carboxyl-terminal hydrolase 10 (Homo sapiens, UniProt Q14694)", "sequence (Q14694 whole entry)": "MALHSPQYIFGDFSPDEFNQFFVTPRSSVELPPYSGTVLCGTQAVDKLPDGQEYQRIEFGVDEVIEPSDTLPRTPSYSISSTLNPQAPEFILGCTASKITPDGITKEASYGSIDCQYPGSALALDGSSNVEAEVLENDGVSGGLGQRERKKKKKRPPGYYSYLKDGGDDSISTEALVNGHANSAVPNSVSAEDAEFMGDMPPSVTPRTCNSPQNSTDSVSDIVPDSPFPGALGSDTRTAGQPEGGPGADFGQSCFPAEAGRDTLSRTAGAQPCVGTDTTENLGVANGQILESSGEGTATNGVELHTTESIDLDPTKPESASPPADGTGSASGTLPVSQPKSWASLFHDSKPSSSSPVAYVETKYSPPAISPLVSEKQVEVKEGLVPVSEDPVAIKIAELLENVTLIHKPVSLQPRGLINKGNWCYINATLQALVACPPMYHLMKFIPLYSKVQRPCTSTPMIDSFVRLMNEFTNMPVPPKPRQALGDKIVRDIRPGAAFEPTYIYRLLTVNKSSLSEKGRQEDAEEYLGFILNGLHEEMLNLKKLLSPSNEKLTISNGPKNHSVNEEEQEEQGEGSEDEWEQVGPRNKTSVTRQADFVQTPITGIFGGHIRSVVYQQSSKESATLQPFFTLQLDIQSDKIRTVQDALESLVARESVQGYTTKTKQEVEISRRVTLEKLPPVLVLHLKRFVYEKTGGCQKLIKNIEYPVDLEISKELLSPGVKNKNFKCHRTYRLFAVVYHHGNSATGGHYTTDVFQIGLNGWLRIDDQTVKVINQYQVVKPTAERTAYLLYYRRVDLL", "conditions": "1 μM"}, "[11]": {"molecular_target": "T6, Ubiquitin carboxy-terminal hydrolase L3 (Homo sapiens, UniProt P15374)", "T6 sequence (P15374 1-230)": "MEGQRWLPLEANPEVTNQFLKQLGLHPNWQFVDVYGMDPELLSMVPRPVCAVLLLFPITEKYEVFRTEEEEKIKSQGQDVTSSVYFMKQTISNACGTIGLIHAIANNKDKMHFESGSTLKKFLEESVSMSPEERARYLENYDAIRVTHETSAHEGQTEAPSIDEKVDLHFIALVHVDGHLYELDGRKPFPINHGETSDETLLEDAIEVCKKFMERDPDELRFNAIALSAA", "conditions": "10 nM"}}}
{"compound": "N#Cc1ccc(NCCNCC(=O)N2N=CCC2C#N)nc1", "note": "(stereo not shown) [KR62436]", "values": [{"measurement": "Percentage inhibition (%), Reference", "setting": "DPP7", "value": 83, "unit": "%"}, {"measurement": "Percentage inhibition (%), Reference", "setting": "DPP8", "value": 96, "unit": "%"}]}
{"compound": "CC(C)(C)OC(=O)N[C@H]1CCCCC/C=C\\[C@@H]2C[C@@]2(C(=O)NS(=O)(=O)C2CC2)NC(=O)[C@@H]2C[C@@H](OC(=O)N3Cc4cccc(F)c4C3)CN2C1=O", "note": "[Denoprevir, reference compound]", "values": [{"measurement": "Percentage inhibition (%), Reference", "setting": "[1]", "value": 98, "unit": "%"}, {"measurement": "Percentage inhibition (%), Reference", "setting": "[2]", "value": 100, "unit": "%"}, {"measurement": "Percentage inhibition (%), Reference", "setting": "[3]", "value": 94, "unit": "%"}]}
{"compound": "N#C[C@@H]1CC(F)(F)CN1C(=O)CNC(=O)c1ccnc2ccccc12", "note": "[SP-13786]", "values": [{"measurement": "Percentage inhibition (%), Reference", "setting": "FAP", "value": 100, "unit": "%"}]}
{"compound": "Ub-Aldehyde", "values": [{"measurement": "Percentage inhibition (%), Reference", "setting": "Ataxin3", "value": 77, "unit": "%"}, {"measurement": "Percentage inhibition (%), Reference", "setting": "Deubiquitinase OTUD6B", "value": 97, "unit": "%"}, {"measurement": "Percentage inhibition (%), Reference", "setting": "[4]", "value": 91, "unit": "%"}, {"measurement": "Percentage inhibition (%), Reference", "setting": "[5]", "value": 96, "unit": "%"}, {"measurement": "Percentage inhibition (%), Reference", "setting": "[6]", "value": 95, "unit": "%"}, {"measurement": "Percentage inhibition (%), Reference", "setting": "[7]", "value": 84, "unit": "%"}, {"measurement": "Percentage inhibition (%), Reference", "setting": "[8]", "value": 92, "unit": "%"}, {"measurement": "Percentage inhibition (%), Reference", "setting": "[9]", "value": 73, "unit": "%"}, {"measurement": "Percentage inhibition (%), Reference", "setting": "[10]", "value": 82, "unit": "%"}, {"measurement": "Percentage inhibition (%), Reference", "setting": "[11]", "value": 95, "unit": "%"}]}
